From patent US9937192B2, “Combination therapy to treat mycobacterium diseases” (priority 2012, dated 2018)
≈ marks a conversion by molar mass, not a printed value. Counter-ions that a name gives are not always drawn. Like-named read-outs stand apart in the source and are kept apart here.

What was measured:
[1] = system: M. tuberculosis H37Rv; experiment: Monotherapy against established TB in mice (dose-ranging activity study); type: in vivo; details: for Log cfu (lung) / Log Reduction: BALB/c mice, M. tuberculosis H37Rv; for Log cfu (lung): 4 weeks of treatment; for Log Reduction: 4 weeks, vs untreated control
[2] = Rat IV Study (pharmacokinetics); details: male Sprague Dawley rats, plasma analyte = label
[3] = system: M. tuberculosis; experiment: microbe, parasite or virus in culture; type: cell-based; details: for MIC: Mycobacterium tuberculosis, H37RA, read-out: MIC, Broth
[4] = system: intracellular M. tuberculosis in THP-1 cells; experiment: microbe, parasite or virus in culture; type: cell-based; details: Mycobacterium tuberculosis, H37RA; for MIC: read-out: MIC, Macrophage Cells
[5] = system: Non-Replicating (NRP) M. tuberculosis H37Ra; experiment: Non-replicating (NRP) M. tuberculosis H37Ra (luciferase) culture assay; type: cell-based; details: Mycobacterium tuberculosis, 336 h, read on day 14
[6] = system: M. tuberculosis H37Rv; experiment: Minimum bactericidal concentration (MBC) assay; type: cell-based; details: 0.125 ug/mL
[7] = Seven-Day Oral (Gavage) Toxicity and Toxicokinetics Study in Rats; type: in vivo, Crl:CD(SD) rats; details: male rats
Excerpt: Seven-Day Oral (Gavage) Toxicity and Toxicokinetics Study in Rats
Crl:CD(SD) rats were obtained from Charles River Laboratories of Stone Ridge, N.Y. The animals were laboratory bred and experimentally naïve. Rats were chosen because they are a species that is commonly used for nonclinical toxicity evaluations.
Animals received the test article or vehicle by oral gavage for 7 consecutive days and were terminated the day following completion of dosing. The first day of dosing was designated as Day 1 of the study. The animals were evaluated for changes in clinical signs, body weight, and other parameters as described below.
The vehicle and test article were administered by oral gavage once daily for 7 consecutive days at a dose volume of 10 mL/kg body weight for Group A and Groups B-D, respectively. The test article and vehicle were administered by oral gavage twice daily, approximately 8 hours apart, for 7 consecutive days at a dose volume of 10 mL/kg body weight for Group E and Group F, respectively. The actual volume administered to each animal was calculated and adjusted based on the most recent body weight of each animal.
During the treatment period, daily cageside observations were made and recorded predose and postdose (following the first dose only). The postdosing observations made during treatment occurred at the following times based on Cmax/Tmax for the two compounds from previous studies:
Prior to start of dosing, body weights were measured for randomization on Day 1. During the treatment, body weights were measured on Day 1 and Day 7. In addition, fasted body weights were measured prior to necropsy for calculation of organ/body weight ratios.
Throughout the study, food consumption was measured daily starting 3 days prior to start of dosing.
Blood samples for evaluation of hematology, coagulation, and serum chemistry parameters were collected from all animals from the retro-orbital plexus (under CO2/O2 anesthesia, for the main study animals) or jugular vein cannula (for the toxicokinetic animals) prior to necropsy. Due to residual heparin used to keep the cannulas patent for the toxicokinetic animals, coagulation samples from these rats, were not able to be analyzed. The animals were fasted overnight prior to blood collection. On the day of blood collection for clinical pathology analyses, the animals were not necropsied until after the blood was collected and the samples judged to be acceptable by the clinical pathology group.
On the 1st and 7th day of dosing, blood samples (approximately 0.5 mL/sample) were collected from the jugular vein cannula for all toxicokinetic animals at the timepoints listed below into K3EDTA-containing tubes. […] Prior to each collection, a small sample of blood (with heparin blocking solution) was removed from the cannula and discarded. A new syringe was placed on the cannula, and the protocol-required sample was taken. The syringe with the blood sample was removed, and a new syringe with saline attached to the cannula. Blood volume was replaced with an equal volume of saline and then blocking solution placed in the cannula. Each animal was returned to its cage until the next collection timepoint.
For all animals euthanized at scheduled necropsies, the kidneys, liver, and prostate gland were weighed. Following weighing, an approximate 1 gram sample of liver and kidney was weighed, transferred to Precellys 7 mL CK28 Tissue Homogenizing tubes (Cat. No. 0904-01), snap-frozen, and analyzed.
For all animals scheduled for the terminal necropsy, the kidneys, liver, and prostate were embedded in paraffin, sectioned and stained with hematoxylin and eosin for further examination by light microscopy. For Groups A, D, E, and F only, the remaining tissues listed above were embedded in paraffin, sectioned and stained with hematoxylin and eosin for further examination by light microscopy. […]

[8] = system: Mycobacterium tuberculosis; experiment: Mycobacterium tuberculosis Serum Shift MIC Assay (Protocol 5); type: cell-based; details: ATCC 35801 / ERDMAN
Excerpt: Protocol 5. Protocol for Mycobacterium tuberculosis Serum Shift MIC Assay
Media Prep: • 1. […] It was important that all media and supplements were sterilized prior to MICs. • 2. Prepared all media below and inoculated as described in next section. Tested all compounds against Mtb using each media. • a. […] 7H9+0.2% glycerol+2 g/L dextrose+0.85 g/L NaCl+0.003 g/L catalase (0% FBS). • c. 2×7H9+0.2% glycerol+2 g/L dextrose+0.85 g/L NaCl+0.003 g/L catalase combined with equal volume Fetal Bovine Serum (50% FBS).
Inoculum Prep: • 1. Using BBL Prompt, picked 5-10 well-separated colonies and inoculated 1 ml sterile saline that came in the kit. Typically plates were two to three weeks of age when used for this assay due to the slow growth of this organism in culture. • 2. Vortexed well, then sonicated in water bath for 30 sec providing a suspension of ˜10^8 cells/ml. Actual density could be confirmed by plating out dilutions of this suspension. • 3. Prepared inoculum in each of the three media formulations by diluting the BBL Prompt suspension 1/200 (for example: transferred 0.2 ml of cells to 40 ml of medium) to obtain a starting cell density of […]. • 4. Used 100 μl cells (˜5×10^4 cells) to inoculate each microtiter well containing 1 μl of drug in DMSO (see below).
Drug Dilutions, Inoculation, MIC Determination: • 1. Control drug stocks Isoniazid and Novobiocin were prepared at 10 mM in 100% DMSO while Ciprofloxacin and Rifampin were prepared at 1 mM in 50% DMSO and 100% DMSO, respectively. Prepared dilutions—dispensed 100 μL of the stock solution into the first column of a 96-well plate. Prepared 11-step, 2-fold serial dilutions across the row for each compound by transferring 50 μl from column 1 into 50 μl of DMSO in column 2. Continued to transfer 50 μL from column 2 through column 11 while mixing and changing tips at each column. Left column 12 with DMSO only as a control. • 2. Transferred 1 μl of each dilution into an empty microtiter well prior to the addition of 100 μl of cells. The starting concentration of Isoniazid and Novobiocin was 100 μM after the dilution into medium+cells; the starting concentration of Ciprofloxacin and Rifampin was 10 μM after the dilution into medium+cells. Compound concentrations decreased in 2× steps moving across the rows of the microtiter plate. […] Measured background fluorescence at Excitation 492 nm, Emission 595 nm and returned the plate to the incubator for another 24 hours.
After 24 hours the fluorescence of each well was measured at Excitation 492 nm, Emission 595 nm.
Percent inhibition by a given compound was calculated as follows: Percent inhibition=100−([well fluorescence-average background fluorescence]/[DMSO control−average background fluorescence]×100). […]

[9] = 100 mg/kg daily 5 days per week
[10] = Compound W dosed IV bolus 1 mg/kg in D5W
[11] = Compound W dosed IV bolus 5 mg/kg in D5W

## CCNC(=O)Nc1nc2cc(-c3cnc(C(C)(C)OP(=O)([O-])[O-])nc3)c(F)c([C@H]3CCCO3)c2[nH]1.[Na+].[Na+] [Compound W, disodium (R)-2-(5-(2-(3-ethylureido)-6-fluoro-7-(tetrahydrofuran-2-yl)-1H-benzo[d]imidazol-5-yl)pyrimidin-2-yl)propan-2-yl phosphate]
[1]; 10 mg/kg daily 5 days per week
  Log cfu (lung): 6.38
  Log Reduction: 0
[1]; 30 mg/kg daily 5 days per week
  Log cfu (lung): 5.51
  Log Reduction: 0.49
[1]; [9]
  Log cfu (lung): 5.35
  Log Reduction: 0.65
[1]; at 30 and 100 mg/kg, p<0.01 by one-way ANOVA with Dunnett's post-test
  activity compared with no treatment: superior to no treatment
[2]; [10]
  AUCextrap: 419 ng·h/mL
  Cl_obs: 46.7 mL/min/kg
  Vss_obs: 0.38 L/kg
  t½: 0.9 h
[2]; [11]
  AUCextrap: 1120 ng·h/mL
  Cl_obs: 84.6 mL/min/kg
  Vss_obs: 5.8 L/kg
  t½: 7.2 h

## CC[C@@H](CO)NCCN[C@@H](CC)CO [Ethambutol]
[3]
  MIC: 2.55 µg/mL (≈ 12.5 µM)
[4]
  MIC: 1.26 µg/mL (≈ 6.17 µM)

## NNC(=O)c1ccncc1 [Isoniazid, isonicotinohydrazide, reference compound]
[5]
  IC50: > 50 µg/mL
[1]; 10 mg/kg daily 5 days per week
  Log cfu (lung): 5.01
  Log Reduction: 0.99
[3]
  MIC: 0.21 µg/mL (≈ 1.53 µM)
[4]
  MIC: 0.012 µg/mL (≈ 0.0875 µM)
[6]
  Log cfu: 4.28
[6]; vs untreated control
  Log Reduction: 1.85

## CCNC(=O)Nc1nc2cc(-c3cnc(C(C)(C)O)nc3)cc([C@H]3CCCO3)c2[nH]1 [Compound 13, methanesulfonic acid salt of 1-ethyl-3-[5-[2-(1-hydroxy-1-methyl-ethyl)pyrimidin-5-yl]-7-[(2R)-tetrahydrofuran-2-yl]-1H-benzimidazol-2-yl]urea]
[7]; 7 days oral gavage
  dose levels at which no adverse toxicity was demonstrated: up to 200 mg/kg/day
[7]; 7 days oral gavage, all dose groups
  adverse observations or effects on mean body weight: No adverse observations or effects on mean body weight
[7]; any dose regimen
  histopathological findings: No test article-related histopathological findings
[7]; once a day for 7 days orally via gavage
  NOEL (No-Observable-Effect-Level): 200 mg/kg
[7]; once daily 100 or 200 mg/kg, not considered adverse
  Mean food consumption: reduced
[7]; toxicokinetics
  exposures for different dosage levels: dose related
[8]; M. tuberculosis Erdman ATCC 35801, read-out: MIC
  MIC: 0.045 µg/mL
[8]; M. tuberculosis Erdman ATCC 35801 with Mouse Serum
  MIC: 2 µg/mL

## CC(=O)NC[C@H]1CN(c2ccc(N3CCOCC3)c(F)c2)C(=O)O1 [Linezolid]
[3]
  MIC: 0.53 µg/mL (≈ 1.57 µM)
[4]
  MIC: 0.37 µg/mL (≈ 1.1 µM)

## CO[C@@H]1[C@@H](OC(N)=O)[C@@H](O)[C@H](Oc2ccc3c(O)c(NC(=O)c4ccc(O)c(CC=C(C)C)c4)c(=O)oc3c2C)OC1(C)C [Novobiocin]
[3]
  Erdman (MIC): 61 µg/mL
[4]; THP-1, 120 h, read-out: Mtb H37Ra in THP1 Cells (IC50)
  IC50: 2.1 µg/mL (≈ 3.43 µM)

## CO[C@H]1/C=C/O[C@@]2(C)Oc3c(C)c(O)c4c(O)c(c(/C=N/N5CCN(C)CC5)c(O)c4c3C2=O)NC(=O)/C(C)=C\C=C\[C@H](C)C(O)[C@@H](C)[C@@H](O)[C@@H](C)[C@H](OC(C)=O)[C@@H]1C (stereo partly drawn) [Rifampin, (7S,9E,11S,12R,13S,14R,15R,16R,17S,18S,19E,21Z)-2,15,17,27,29-pentahydroxy-11-methoxy-3,7,12,14,16,18,22-heptamethyl-26-{(E)-[(4-methylpiperazin-1-yl)imino]methyl}-6,23-dioxo-8,30-dioxa-24-azatetracyclo[23.3.1.1^4.7.0^5.28]triaconta-1(28),2,4,9,19,21,25(29),26-octaen-13-yl acetate]
[5]
  IC50: < 0.05 µg/mL
[1]; 10 mg/kg daily 5 days per week
  Log cfu (lung): 4.38
  Log Reduction: 1.62
[3]
  MIC: 0.03 µg/mL
[4]
  MIC: 0.008 µg/mL
